From article PMC8115619, “Generation of a chemical genetic model for JAK3” (Scientific Reports, 2021)
pIC50: −log10 of the molar value. Like-named read-outs stand apart in the source and are kept apart here.

How the values were obtained:
[1] = tested on: IL-4 induced STAT6 phosphorylation in wild type BMDMs; experiment: IL-4 induced STAT6 phosphorylation in wild type BMDMs (immunoblot); type: cell-based; details: Mus musculus, BMDM, 0.5 h; 10 ng/ml IL-4 30 min, pSTAT6 Tyr641 immunoblot, two independent experiments
Experimental: (§1) Figure 3 Effect of JAK3 inhibitors on IL-4 induced STAT6 phosphorylation. BMDMs were isolated from wild type and JAK3 Cys905Ser knockin mice. Cells were incubated with the indicated concentrations of inhibitor before stimulation for 30 min with 10 ng/ml IL-4. Cells were lysed and the levels of STAT6 phosphorylated at Tyr641 were assessed by immunoblotting. Levels of ERK1/2 were determined as a loading control.
(§2) Bone marrow derived macrophages (BMDMs) were cultured as described. Briefly, bone marrow was flushed in PBS from the femurs and tibias of mice. Cells were cultured on bacterial grade plastic for 7 days at 37 °C, 5% CO2. Cells were then detached using Versene (Gibco), re-plated on tissue culture plastic in BMDM media (in DMEM supplemented with 10% heat inactivated FBS (Labtech), 2 mM L-glutamine, 100 U/ml penicillin G, 100 μg/ml streptomycin and 0.25 μg/ml amphotericin, 5 ng/ml M-CSF) and used within 48 h. Where indicated cells were stimulated with 10 ng/ml IL-4, 10 ng/ml GM-CSF, 10 ng/ml IL-10 or 10 ng/ml IFNβ. All cytokines were from PeproTech.
(§3) Cells were lysed directly into SDS sample buffer and aliquots run on 10% polyacrylamide gels using standard methods. Proteins were transferred onto nitrocellulose membranes, and specific proteins were detected by immunoblotting. Antibodies against tyrosine phosphorylated STATs were from Cell Signaling Technology (phospho-STAT1 #9167, phospho-STAT3 #9131, phospho-STAT5 #4322 and phospho-STAT6 #9361). The total ERK1/2 antibody used as a loading control was also from cell Signaling Technology (#4695). HRP-conjugated secondary antibodies were obtained from Pierce. Bands were detected using Clarity ECL reagents from BioRad and imaged on a Licor Odyssey Fc system. Quantification was carried out using Licor Image Studio software. After correction for the ERK1/2 levels to account for loading differences, percentage inhibition was calculated relative to the IL-4 stimulated condition. IC50 values were calculated using the same methods as for the in vitro IC50 values.

[2] = tested on: IL-4 induced STAT6 phosphorylation in BMDMs from JAK3 Cys905Ser knockin mice; experiment: IL-4 induced STAT6 phosphorylation in JAK3 Cys905Ser knockin BMDMs (immunoblot); type: cell-based, mouse; details: for pIC50: Mus musculus, BMDM, 0.5 h, 10 ng/ml IL-4 30 min, pSTAT6 Tyr641 immunoblot, two independent experiments
Experimental: as §1, §2, §3

TYK2 = details: read-out: In vitro IC50 TYK2, cited from earlier work
panel of 139 kinases = experiment: In vitro selectivity screen, whole panel; type: biochemical; details: 1 μM, panel of 139 kinases in vitro
Experimental: (§4) For the in vitro kinase assay, JAK3 (5–20 mU diluted in 50 mM Tris pH 7.5, 0.1 mM EGTA, 0.05% β-mercaptoethanol, 1 mg/ml BSA) was assayed against PDKtide ([…]) in a final volume of 25.5 µl containing 50 mM Tris pH 7.5, 0.1 mM EGTA, 0.05% β-mercaptoethanol, 100 µM substrate peptide, 10 mM magnesium acetate and 0.02 mM [33P-γ-ATP] (50–1000 cpm/pmole) and incubated for 30 min at room temperature. Assays were started by the addition of the ATP and stopped by addition of 5 µl of 0.5 M (3%) orthophosphoric acid and then harvested onto P81 Unifilter plates with a wash buffer of 50 mM orthophosphoric acid. To determine the Km for ATP, assays were run using 1, 5, 10, 20, 50, 100, 200, 400, 500 μM ATP and Km derived by non-linear regression fitting to the Michaelis–Menten equation v = Vmax[S]/(Km + [S]). IC50 values for inhibitors via non-linear regression using a parameter model: Y = Bottom + (Top–Bottom)/(1 + (IC50/X)^HillSlope). Non-linear regression was carried out in Prism (version 8). In vitro selectivity screen was carried out as described previously.

CHK1 = CHK1 (Homo sapiens, UniProt O14757); experiment: Selectivity screen CHK1; type: biochemical; details: 1 µM inhibitor, mean
Experimental: as §4

CK2 = CK2 (Homo sapiens, UniProt P68400); experiment: Selectivity screen CK2; type: biochemical; details: 1 µM inhibitor, mean
Experimental: as §4

DYRK1A = DYRK1A (Homo sapiens, UniProt Q13627); experiment: Selectivity screen DYRK1A; type: biochemical; details: 1 µM inhibitor, mean
Experimental: as §4

EPH-A4 = EPH-A4 (Homo sapiens, UniProt P54764); experiment: Selectivity screen EPH-A4; type: biochemical; details: 1 µM inhibitor, mean
Experimental: as §4

EPH-B4 = EPH-B4 (Homo sapiens, UniProt P54760); experiment: Selectivity screen EPH-B4; type: biochemical; details: 1 µM inhibitor, mean
Experimental: as §4

ERK1 = ERK1 (Homo sapiens, UniProt P27361); experiment: Selectivity screen ERK1; type: biochemical; details: 1 µM inhibitor, mean
Experimental: as §4

ERK2 = ERK2 (Homo sapiens, UniProt P28482); experiment: Selectivity screen ERK2; type: biochemical; details: 1 µM inhibitor, mean
Experimental: as §4

HER4 = HER4 (Homo sapiens, UniProt Q15303); experiment: Selectivity screen HER4; type: biochemical; details: 1 µM inhibitor, mean
Experimental: as §4

IRAK4 = IRAK4 (Homo sapiens, UniProt Q9NWZ3); experiment: Selectivity screen IRAK4; type: biochemical; details: 1 µM inhibitor, mean
Experimental: as §4

JNK1 = JNK1 (Homo sapiens, UniProt P45983); experiment: Selectivity screen JNK1; type: biochemical; details: 1 µM inhibitor, mean
Experimental: as §4

LKB1 = LKB1 (Homo sapiens, UniProt Q15831); experiment: Selectivity screen LKB1; type: biochemical; details: 1 µM inhibitor, mean
Experimental: as §4

MKK6 = MKK6 (Homo sapiens, UniProt P52564); experiment: Selectivity screen MKK6; type: biochemical; details: 1 µM inhibitor, mean
Experimental: as §4

MST4 = MST4 (Homo sapiens, UniProt Q9P289); experiment: Selectivity screen MST4; type: biochemical; details: 1 µM inhibitor, mean
Experimental: as §4

PKBb = PKBb (Homo sapiens, UniProt P31751); experiment: Selectivity screen PKBb; type: biochemical; details: 1 µM inhibitor, mean; read-out: activity remaining in the presence of the inhibitor: PKBb
Experimental: as §4

PLK1 = PLK1 (Homo sapiens, UniProt P53350); experiment: Selectivity screen PLK1; type: biochemical; details: 1 µM inhibitor, mean
Experimental: as §4

SYK = SYK (Homo sapiens, UniProt P43405); experiment: Selectivity screen SYK; type: biochemical; details: 1 µM inhibitor, mean
Experimental: as §4

TAK1 = TAK1 (Homo sapiens, UniProt O43318); experiment: Selectivity screen TAK1; type: biochemical; details: 1 µM inhibitor, mean
Experimental: as §4

TLK1 = TLK1 (Homo sapiens, UniProt Q9UKI8); experiment: Selectivity screen TLK1; type: biochemical; details: 1 µM inhibitor, mean
Experimental: as §4

ULK2 = ULK2 (Homo sapiens, UniProt Q8IYT8); experiment: Selectivity screen ULK2; type: biochemical; details: 1 µM inhibitor, mean
Experimental: as §4

Sequence of ULK2 (Q8IYT8 whole entry): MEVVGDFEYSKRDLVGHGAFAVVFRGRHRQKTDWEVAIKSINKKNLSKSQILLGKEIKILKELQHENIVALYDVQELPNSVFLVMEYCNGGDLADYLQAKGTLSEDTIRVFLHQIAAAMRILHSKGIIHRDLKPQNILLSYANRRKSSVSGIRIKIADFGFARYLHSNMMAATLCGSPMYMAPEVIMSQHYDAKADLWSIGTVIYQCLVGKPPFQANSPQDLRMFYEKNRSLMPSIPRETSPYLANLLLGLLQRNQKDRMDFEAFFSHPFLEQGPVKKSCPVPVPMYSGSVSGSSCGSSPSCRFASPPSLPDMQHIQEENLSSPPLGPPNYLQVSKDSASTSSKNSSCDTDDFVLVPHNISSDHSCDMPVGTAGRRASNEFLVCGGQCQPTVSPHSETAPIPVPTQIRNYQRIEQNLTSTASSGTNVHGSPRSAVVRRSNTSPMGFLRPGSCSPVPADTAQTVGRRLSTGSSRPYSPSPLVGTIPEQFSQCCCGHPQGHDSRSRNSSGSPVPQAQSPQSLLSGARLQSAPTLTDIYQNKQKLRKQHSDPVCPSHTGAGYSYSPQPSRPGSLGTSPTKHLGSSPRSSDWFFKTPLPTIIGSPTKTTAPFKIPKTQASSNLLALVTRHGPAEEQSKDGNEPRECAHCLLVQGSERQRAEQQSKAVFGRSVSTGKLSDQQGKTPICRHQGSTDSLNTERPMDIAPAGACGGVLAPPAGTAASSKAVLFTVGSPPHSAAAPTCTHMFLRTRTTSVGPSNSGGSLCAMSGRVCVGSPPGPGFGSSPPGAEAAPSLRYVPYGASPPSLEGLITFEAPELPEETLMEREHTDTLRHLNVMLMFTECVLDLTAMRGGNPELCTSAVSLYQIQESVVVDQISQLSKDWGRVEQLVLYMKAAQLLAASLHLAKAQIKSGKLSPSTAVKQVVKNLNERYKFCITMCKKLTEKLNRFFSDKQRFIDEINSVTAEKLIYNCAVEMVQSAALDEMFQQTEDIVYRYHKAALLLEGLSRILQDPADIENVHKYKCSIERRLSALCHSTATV
Sequence of ERK1 (P27361 whole entry): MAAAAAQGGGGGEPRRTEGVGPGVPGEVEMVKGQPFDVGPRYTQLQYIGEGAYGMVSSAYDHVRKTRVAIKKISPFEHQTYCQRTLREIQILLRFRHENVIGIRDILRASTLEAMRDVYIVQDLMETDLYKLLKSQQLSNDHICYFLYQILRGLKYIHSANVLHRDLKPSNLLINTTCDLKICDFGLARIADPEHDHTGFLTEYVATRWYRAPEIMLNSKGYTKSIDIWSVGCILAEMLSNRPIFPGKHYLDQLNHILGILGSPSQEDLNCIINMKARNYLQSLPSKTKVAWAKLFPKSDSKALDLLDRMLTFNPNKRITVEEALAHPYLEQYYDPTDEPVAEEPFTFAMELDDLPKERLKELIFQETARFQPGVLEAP
Sequence of LKB1 (Q15831 whole entry): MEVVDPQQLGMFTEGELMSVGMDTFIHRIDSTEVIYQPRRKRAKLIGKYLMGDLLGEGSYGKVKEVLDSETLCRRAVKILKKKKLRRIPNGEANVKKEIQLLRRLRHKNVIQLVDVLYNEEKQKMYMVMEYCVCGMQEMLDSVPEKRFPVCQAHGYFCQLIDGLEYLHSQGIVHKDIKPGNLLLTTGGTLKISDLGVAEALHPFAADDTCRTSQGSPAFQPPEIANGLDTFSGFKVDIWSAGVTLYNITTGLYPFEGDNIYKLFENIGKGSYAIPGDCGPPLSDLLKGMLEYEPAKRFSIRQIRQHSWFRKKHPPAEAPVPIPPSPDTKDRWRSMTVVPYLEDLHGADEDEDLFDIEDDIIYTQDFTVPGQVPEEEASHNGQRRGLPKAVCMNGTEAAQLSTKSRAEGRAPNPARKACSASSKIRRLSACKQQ
Sequence of LKB1 (Q7RTN6 whole entry partner): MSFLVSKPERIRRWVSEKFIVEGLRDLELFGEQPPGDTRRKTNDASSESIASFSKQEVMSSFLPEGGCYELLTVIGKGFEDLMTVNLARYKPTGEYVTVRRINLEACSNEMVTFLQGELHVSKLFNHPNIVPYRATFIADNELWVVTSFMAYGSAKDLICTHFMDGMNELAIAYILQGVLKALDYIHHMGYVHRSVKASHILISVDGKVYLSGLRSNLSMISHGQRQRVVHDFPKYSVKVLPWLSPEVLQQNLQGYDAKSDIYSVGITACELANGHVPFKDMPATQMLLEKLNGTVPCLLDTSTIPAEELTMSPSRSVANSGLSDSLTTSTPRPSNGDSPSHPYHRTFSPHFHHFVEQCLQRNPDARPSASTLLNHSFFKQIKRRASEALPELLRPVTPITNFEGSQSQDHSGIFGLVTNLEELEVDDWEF
Sequence of LKB1 (Q9Y376 whole entry partner): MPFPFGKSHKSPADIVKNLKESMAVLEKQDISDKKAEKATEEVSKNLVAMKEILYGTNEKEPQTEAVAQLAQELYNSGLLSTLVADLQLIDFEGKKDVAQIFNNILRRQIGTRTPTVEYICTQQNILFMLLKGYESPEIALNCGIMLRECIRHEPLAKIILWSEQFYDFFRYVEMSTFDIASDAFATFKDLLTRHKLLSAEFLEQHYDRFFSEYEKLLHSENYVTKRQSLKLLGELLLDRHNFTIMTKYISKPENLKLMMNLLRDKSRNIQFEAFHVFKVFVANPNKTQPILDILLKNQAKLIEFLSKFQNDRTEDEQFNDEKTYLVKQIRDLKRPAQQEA
Sequence of JNK1 (P45983 whole entry): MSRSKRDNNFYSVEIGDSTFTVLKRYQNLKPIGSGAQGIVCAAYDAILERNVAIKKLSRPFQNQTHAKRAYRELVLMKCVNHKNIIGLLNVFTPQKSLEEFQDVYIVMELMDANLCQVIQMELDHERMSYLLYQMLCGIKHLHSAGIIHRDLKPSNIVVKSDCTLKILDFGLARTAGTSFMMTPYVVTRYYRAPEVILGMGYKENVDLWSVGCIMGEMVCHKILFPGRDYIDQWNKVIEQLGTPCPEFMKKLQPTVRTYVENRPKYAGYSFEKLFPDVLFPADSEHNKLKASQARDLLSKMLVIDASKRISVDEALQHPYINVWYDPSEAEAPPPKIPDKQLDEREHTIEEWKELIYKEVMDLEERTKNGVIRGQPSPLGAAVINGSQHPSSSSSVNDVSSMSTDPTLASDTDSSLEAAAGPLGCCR
Sequence of TAK1 (O43318 1-303 limits assumed): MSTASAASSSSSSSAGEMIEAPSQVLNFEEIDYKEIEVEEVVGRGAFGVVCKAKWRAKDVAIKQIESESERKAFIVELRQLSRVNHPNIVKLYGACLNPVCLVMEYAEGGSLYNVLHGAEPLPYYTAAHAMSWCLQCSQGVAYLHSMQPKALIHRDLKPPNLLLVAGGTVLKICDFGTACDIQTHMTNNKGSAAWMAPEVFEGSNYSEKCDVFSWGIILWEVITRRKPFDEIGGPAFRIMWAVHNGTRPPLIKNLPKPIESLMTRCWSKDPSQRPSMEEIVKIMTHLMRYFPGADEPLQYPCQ
Sequence of CHK1 (O14757 whole entry): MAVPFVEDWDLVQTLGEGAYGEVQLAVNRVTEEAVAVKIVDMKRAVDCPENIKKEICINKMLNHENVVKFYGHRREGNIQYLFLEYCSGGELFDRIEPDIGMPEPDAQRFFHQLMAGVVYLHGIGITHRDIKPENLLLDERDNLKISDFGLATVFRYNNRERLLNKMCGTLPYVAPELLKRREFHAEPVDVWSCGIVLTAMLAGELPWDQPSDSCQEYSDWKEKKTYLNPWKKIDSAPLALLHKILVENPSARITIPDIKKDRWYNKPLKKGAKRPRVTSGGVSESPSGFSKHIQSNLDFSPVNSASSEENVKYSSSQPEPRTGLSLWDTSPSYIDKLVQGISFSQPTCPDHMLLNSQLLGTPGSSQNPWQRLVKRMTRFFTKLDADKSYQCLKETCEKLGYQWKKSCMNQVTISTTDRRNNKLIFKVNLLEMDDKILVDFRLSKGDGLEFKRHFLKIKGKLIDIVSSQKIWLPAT
Sequence of MKK6 (P52564 whole entry): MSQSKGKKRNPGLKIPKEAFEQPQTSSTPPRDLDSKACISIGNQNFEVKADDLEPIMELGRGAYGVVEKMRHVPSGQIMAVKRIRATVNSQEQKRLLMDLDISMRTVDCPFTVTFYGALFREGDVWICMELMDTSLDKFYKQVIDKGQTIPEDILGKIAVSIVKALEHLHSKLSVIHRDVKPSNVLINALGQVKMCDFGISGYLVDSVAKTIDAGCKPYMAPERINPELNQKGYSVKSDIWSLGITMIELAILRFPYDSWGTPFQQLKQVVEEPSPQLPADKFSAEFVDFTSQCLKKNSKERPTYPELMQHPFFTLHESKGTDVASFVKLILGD
Sequence of TLK1 (Q9UKI8 whole entry): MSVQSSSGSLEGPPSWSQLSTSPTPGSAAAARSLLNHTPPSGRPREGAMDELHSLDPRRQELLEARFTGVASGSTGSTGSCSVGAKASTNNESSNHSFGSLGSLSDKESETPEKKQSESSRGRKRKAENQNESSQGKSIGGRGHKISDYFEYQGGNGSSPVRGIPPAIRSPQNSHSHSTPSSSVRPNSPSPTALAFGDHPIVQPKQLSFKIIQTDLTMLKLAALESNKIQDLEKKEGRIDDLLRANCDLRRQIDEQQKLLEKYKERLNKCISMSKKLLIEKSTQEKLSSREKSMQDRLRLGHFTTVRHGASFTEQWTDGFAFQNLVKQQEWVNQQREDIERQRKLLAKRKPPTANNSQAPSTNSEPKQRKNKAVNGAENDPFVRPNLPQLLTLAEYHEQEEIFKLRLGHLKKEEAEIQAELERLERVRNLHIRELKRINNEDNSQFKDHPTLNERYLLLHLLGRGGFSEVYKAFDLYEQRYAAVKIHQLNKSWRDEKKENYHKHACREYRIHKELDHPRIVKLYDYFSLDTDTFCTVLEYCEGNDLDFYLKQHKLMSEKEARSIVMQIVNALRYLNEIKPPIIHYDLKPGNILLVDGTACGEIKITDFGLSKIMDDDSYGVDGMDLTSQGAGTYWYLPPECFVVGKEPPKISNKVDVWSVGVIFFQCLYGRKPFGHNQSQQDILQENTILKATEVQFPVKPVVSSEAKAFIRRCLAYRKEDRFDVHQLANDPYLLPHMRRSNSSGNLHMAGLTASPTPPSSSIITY

Row | Structure (SMILES) | pIC50 [1] | pIC50 [2] | number of other kinases inhibited by more than 80% (panel of 139 kinases) | activity remaining in the presence of the inhibitor: CHK1 (CHK1) | activity remaining in the presence of the inhibitor: CK2 (CK2) | activity remaining in the presence of the inhibitor: DYRK1A (DYRK1A) | activity remaining in the presence of the inhibitor: EPH-A4 (EPH-A4) | activity remaining in the presence of the inhibitor: EPH-B4 (EPH-B4) | activity remaining in the presence of the inhibitor: ERK1 (ERK1) | activity remaining in the presence of the inhibitor: ERK2 (ERK2) | activity remaining in the presence of the inhibitor: HER4 (HER4) | activity remaining in the presence of the inhibitor: IRAK4 (IRAK4) | activity remaining in the presence of the inhibitor: JNK1 (JNK1) | activity remaining in the presence of the inhibitor: LKB1 (LKB1) | activity remaining in the presence of the inhibitor: MKK6 (MKK6) | activity remaining in the presence of the inhibitor: MST4 (MST4) | remaining activity at 1 µM (PKBb) [%] | activity remaining in the presence of the inhibitor: PLK1 (PLK1) | activity remaining in the presence of the inhibitor: SYK (SYK) | activity remaining in the presence of the inhibitor: TAK1 (TAK1) | further results
1 | C=CC(=O)N1C[C@H](Nc2ncnc3[nH]ccc23)CC[C@@H]1C [PF-06651600, 1-((2S,5R)-5-((7H-Pyrrolo[2,3-d]pyrimidin-4-yl)amino)-2-methylpiperidin-1-yl)prop-2-en-1-one, reference compound] | 6.25 | < 5.00 | – | – | – | – | – | – | – | – | – | – | – | – | – | – | – | – | – | – | pIC50 (TYK2; ATP 12 μM): < 5.00
2 | C=CC(=O)Nc1cccc(CNc2nc(Nc3ccc(N4CCN(C)CC4)cc3OC)ncc2Cl)c1 [TL6-144] | 6.26 | […] | 4 | 93 | 103 | 90 | 104 | 83 | 94 | 106 | 9 | 85 | 83 | 91 | 104 | 107 | 107 | 107 | 107 | 77 | inhibition of IL-4 induced STAT6 phosphorylation, JAK3 Cys905Ser knockin BMDMs ([2]; 10 μM inhibitor): did not inhibit; activity remaining in the presence of the inhibitor: TLK1 (TLK1): 102; activity remaining in the presence of the inhibitor: ULK2 (ULK2): 63; pIC50 (TYK2; ATP 25 μM): […]
3 | C=CC(=O)Nc1cccc(CNc2nc(Nc3ccc(N4CCOCC4)cc3)ncc2Cl)c1 [TL8-52] | 7.00 | 6.27 | 8 | 91 | 103 | 100 | 99 | 104 | 94 | 97 | 31 | 77 | 104 | 132 | 105 | 96 | 107 | 114 | 63 | 39 | activity remaining in the presence of the inhibitor: TLK1 (TLK1): 82; activity remaining in the presence of the inhibitor: ULK2 (ULK2): 92; pIC50 (TYK2; ATP 25 μM): 6.49
